Results taken from patent US20250066343A1, “NOVEL CANNAB[…] DERIVATIVE, PREPARATION METHOD THEREFOR, AND COMPOSITION COMPRISING SAME FOR IMPROVING COGNITIVE FUNCTION” (priority 2021, published 2025).
pIC50: −log10 of the molar value.

Assays:
Type in all cases: biochemical
[1] = biological target: Acetylcholinesterase (AChE) (Homo sapiens, UniProt P22303); test: Acetylcholinesterase inhibitory efficacy (acetylthiocholine/DTNB absorbance assay)
Protocol: (§1) Acetylcholinesterase or butyrylcholinesterase was prepared at 50 mU/ml, 50 μl was added to a 96-well plate, mixed with the aliquoted compound, and left for 10 minutes. The substrate, acetylthiocoline 0.05 mg/mL or butyrylthiocoline 0.1 mg/ml, was prepared and 50 μl was added to a 96-well plate and left for 10 minutes. Dithionitrobenzoic acid (DTNB) was prepared at 0.3 mg/ml, then 50 μl was added to a 96-well plate and left for 10 minutes.

[2] = biological target: T1, Monoamine oxidase B (MAO-B) (Homo sapiens, UniProt P27338); test: Monoamine oxidase B inhibitory efficacy (kynuramine fluorescence assay); conditions: compound 0-200 μM; enzyme 2 mU/mL; kynuramine substrate; N.D. = Not Detected
T1 sequence (P27338 1-520): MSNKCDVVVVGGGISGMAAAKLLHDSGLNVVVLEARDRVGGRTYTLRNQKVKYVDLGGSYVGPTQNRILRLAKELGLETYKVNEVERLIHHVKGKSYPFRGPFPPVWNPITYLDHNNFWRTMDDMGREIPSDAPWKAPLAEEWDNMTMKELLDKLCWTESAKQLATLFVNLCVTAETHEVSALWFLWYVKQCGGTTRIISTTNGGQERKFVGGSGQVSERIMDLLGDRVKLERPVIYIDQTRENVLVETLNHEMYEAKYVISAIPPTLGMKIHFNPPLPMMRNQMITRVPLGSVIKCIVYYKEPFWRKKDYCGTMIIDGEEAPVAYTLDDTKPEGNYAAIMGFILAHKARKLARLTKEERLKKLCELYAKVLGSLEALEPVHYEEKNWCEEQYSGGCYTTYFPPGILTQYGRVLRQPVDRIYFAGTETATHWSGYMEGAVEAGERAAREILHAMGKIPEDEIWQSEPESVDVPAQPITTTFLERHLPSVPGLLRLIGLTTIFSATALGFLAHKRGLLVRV
Protocol: Samples were prepared by dilution with DMSO to give concentrations of 0, 2, 5, 10, 20, 50, 100, and 200 μM of the compound, and 5 μl was dispensed into a 96-well plate. 135 μl of potassium phosphate buffer (0.1 M, 7.4 pH) was dispensed into a 96-well plate. Monoamine oxidase B was prepared at 2 mU/mL, and 50 μl was added to the 96-well plate, mixed with the dispensed compound, and left for 20 minutes. The substrate, kynuramine solution, was prepared at 100 μM, then 10 μl was added to a 96-well plate and left for 10 min. The reaction was stopped by adding 75 μl of NaOH (2N). The enzyme activity was calculated by measuring the concentration of kynuramine degraded by the enzyme using a fluorometer under 310 nm (excitation)/380 nm (emission) conditions. For the fluorescence blank experiment, potassium phosphate buffer was added instead of monoamine oxidase B to correct the compound-induced fluorescence intensity values.

[3] = biological target: Butyrylcholinesterase (BuChE) (Homo sapiens, UniProt P06276); test: Butyrylcholinesterase inhibitory efficacy (butyrylthiocholine/DTNB absorbance assay); conditions: compound 0-200 μM; enzyme 50 mU/ml; N.D. = Not Detected
Chain of Butyrylcholinesterase (BuChE) (P06276 29-602): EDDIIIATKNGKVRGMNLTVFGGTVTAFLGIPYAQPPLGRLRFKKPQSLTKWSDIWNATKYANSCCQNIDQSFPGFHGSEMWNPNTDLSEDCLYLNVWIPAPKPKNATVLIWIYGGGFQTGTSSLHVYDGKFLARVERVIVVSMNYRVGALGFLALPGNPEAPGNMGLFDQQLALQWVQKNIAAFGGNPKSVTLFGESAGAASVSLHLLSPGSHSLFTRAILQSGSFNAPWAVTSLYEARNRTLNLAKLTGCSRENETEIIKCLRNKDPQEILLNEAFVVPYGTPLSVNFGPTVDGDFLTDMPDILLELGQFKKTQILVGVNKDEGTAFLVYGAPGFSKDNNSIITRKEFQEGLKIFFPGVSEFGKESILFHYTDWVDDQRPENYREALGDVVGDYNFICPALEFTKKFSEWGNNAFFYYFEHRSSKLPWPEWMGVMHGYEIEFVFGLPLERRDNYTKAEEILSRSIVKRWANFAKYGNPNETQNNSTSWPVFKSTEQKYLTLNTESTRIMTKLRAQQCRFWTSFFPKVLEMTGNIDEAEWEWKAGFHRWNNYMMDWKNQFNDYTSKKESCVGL
Protocol: as §1

Chain of Acetylcholinesterase (AChE) (P22303 32-614, species assumed): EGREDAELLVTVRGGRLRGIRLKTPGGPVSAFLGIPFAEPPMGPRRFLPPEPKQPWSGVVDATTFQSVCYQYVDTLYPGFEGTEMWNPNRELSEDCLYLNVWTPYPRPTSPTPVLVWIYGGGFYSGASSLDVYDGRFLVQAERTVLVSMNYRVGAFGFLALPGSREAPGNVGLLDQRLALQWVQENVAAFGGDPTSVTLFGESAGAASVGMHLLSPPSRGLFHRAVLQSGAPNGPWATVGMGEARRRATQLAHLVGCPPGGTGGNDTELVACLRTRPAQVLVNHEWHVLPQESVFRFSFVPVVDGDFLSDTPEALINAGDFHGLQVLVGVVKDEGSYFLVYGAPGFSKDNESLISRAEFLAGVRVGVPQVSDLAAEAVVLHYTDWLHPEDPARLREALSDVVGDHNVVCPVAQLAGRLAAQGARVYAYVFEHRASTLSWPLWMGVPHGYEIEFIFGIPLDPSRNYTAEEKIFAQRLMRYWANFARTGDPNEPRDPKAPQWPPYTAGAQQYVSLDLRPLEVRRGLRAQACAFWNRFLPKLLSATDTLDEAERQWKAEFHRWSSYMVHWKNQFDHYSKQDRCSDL

| Compound | pIC50 [1] | pIC50 [2] | pIC50 [3] |
| --- | --- | --- | --- |
| CCCCCCCCCCCCNC(=O)c1c(CCCCC)cc2c(c1O)C=CC(C)(CCC=C(C)C)O2 (stereo not drawn) [Compound 4h, N-dodecyl-5-hydroxy-2-methyl-2-(4-methylpent-3-en-1-yl)-7-pentyl-2H-chromene-6-carboxamide] | 5.64 | – | – |
| C#CCNC(=O)c1c(CCCCC)cc2c(c1O)C=CC(C)(CCC=C(C)C)O2 (stereo not drawn) [Compound 4m, 5-hydroxy-2-methyl-2-(4-methylpent-3-en-1-yl)-7-pentyl-N-(prop-2-yn-1-yl)-2H-chromene-6-carboxamide] | 5.44 | 4.10 | – |
| CCCCCc1cc2c(c(O)c1C(=O)NC1CC1)C=CC(C)(CCC=C(C)C)O2 (stereo not drawn) [Compound 4c, N-cyclopropyl-5-hydroxy-2-methyl-2-(4-methylpent-3-en-1-yl)-7-pentyl-2H-chromene-6-carboxamide] | 5.37 | – | – |
| CCCCCc1cc2c(c(O)c1C(=O)NCc1cc(Br)cs1)C=CC(C)(CCC=C(C)C)O2 (stereo not drawn) [Compound 4p, N-((4-bromothiophen-2-yl)methyl)-5-hydroxy-2-methyl-2-(4-methylpent-3-en-1-yl)-7-pentyl-2H-chromene-6-carboxamide] | 6.22 | – | – |
| CCCCCc1cc2c(c(O)c1C(=O)NC(C)CC)C=CC(C)(CCC=C(C)C)O2 (stereo not drawn) [Compound 4v, N-(sec-butyl)-5-hydroxy-2-methyl-2-(4-methylpent-3-en-1-yl)-7-pentyl-2H-chromene-6-carboxamide] | 5.18 | – | – |
| CCCCCc1cc2c(c(O)c1C(=O)NC1CCOCC1)C=CC(C)(CCC=C(C)C)O2 (stereo not drawn) [Compound 4af, 5-hydroxy-2-methyl-2-(4-methylpent-3-en-1-yl)-7-pentyl-N-(tetrahydro-2H-pyran-4-yl)-2H-chromene-6-carboxamide] | 4.34 | 3.71 | – |
| CCCCCc1cc2c(c(O)c1C(=O)Nc1ccc(-c3ccc(F)cc3)cc1)C=CC(C)(CCC=C(C)C)O2 (stereo not drawn) [Compound 4w, N-(4′-fluoro-[1,1′-biphenyl]-4-yl)-5-hydroxy-2-methyl-2-(4-methylpent-3-en-1-yl)-7-pentyl-2H-chromene-6-carboxamide] | 4.86 | 5.15 | – |
| CCCCCc1cc2c(c(O)c1C(=O)NCC(CC)CCCC)C=CC(C)(CCC=C(C)C)O2 (stereo not drawn) [Compound 4j, N-(2-ethylhexyl)-5-hydroxy-2-methyl-2-(4-methylpent-3-en-1-yl)-7-pentyl-2H-chromene-6-carboxamide] | 5.89 | 4.36 | – |
| CCCCCc1cc2c(c(O)c1C(=O)Nc1ccc(Br)cc1)C=CC(C)(CCC=C(C)C)O2 (stereo not drawn) [Compound 4ad, N-(4-bromophenyl)-5-hydroxy-2-methyl-2-(4-methylpent-3-en-1-yl)-7-pentyl-2H-chromene-6-carboxamide] | > 6.30 | 4.92 | – |
| CCCCCc1cc2c(c(O)c1C(=O)Nc1ccc(C)cc1)C=CC(C)(CCC=C(C)C)O2 (stereo not drawn) [Compound 4t, 5-hydroxy-2-methyl-2-(4-methylpent-3-en-1-yl)-7-pentyl-N-(p-tolyl)-2H-chromene-6-carboxamide] | 4.32 | – | – |
| CCCCCc1cc2c(c(O)c1C(=O)NC1CCCCC1)C=CC(C)(CCC=C(C)C)O2 (stereo not drawn) [Compound 4f, N-cyclohexyl-5-hydroxy-2-methyl-2-(4-methylpent-3-en-1-yl)-7-pentyl-2H-chromene-6-carboxamide] | 5.92 | – | – |
| CCCCCc1cc2c(c(O)c1C(=O)Nc1ncc(C)s1)C=CC(C)(CCC=C(C)C)O2 (stereo not drawn) [Compound 4r, 5-hydroxy-2-methyl-2-(4-methylpent-3-en-1-yl)-N-(5-methylthiazol-2-yl)-7-pentyl-2H-chromene-6-carboxamide] | 5.96 | 4.72 | – |
| CCCCCc1cc2c(c(O)c1C(=O)NCCCc1ccccc1)C=CC(C)(CCC=C(C)C)O2 (stereo not drawn) [Compound 4n, 5-hydroxy-2-methyl-2-(4-methylpent-3-en-1-yl)-7-pentyl-N--(3phenylpropyl)-2H-chromene-6-carboxamide] | 5.92 | 4.72 | – |
| CCCCCc1cc2c(c(O)c1C(=O)NCCCC)C=CC(C)(CCC=C(C)C)O2 (stereo not drawn) [Compound 4d, N-butyl-5-hydroxy-2-methyl-2-(4-methylpent-3-en-1-yl)-7-pentyl-2H-chromene-6-carboxamide] | 6.00 | – | – |
| CCCCCc1cc2c(c(O)c1C(=O)NCCS)C=CC(C)(CCC=C(C)C)O2 (stereo not drawn) [Compound 4y, 5-hydroxy-N-(2-mercaptoethyl)-2-methyl-2-(4-methylpent-3-en-1-yl)-7-pentyl-2H-chromene-6-carboxamide] | 5.21 | – | – |
| CCCCCc1cc2c(c(O)c1C(=O)NC(C)C)C=CC(C)(CCC=C(C)C)O2 (stereo not drawn) [Compound 4a, 5-hydroxy-N-isopropyl-2-methyl-2-(4-methylpent-3-en-1-yl)-7-pentyl-2H-chromene-6-carboxamide] | 5.89 | – | – |
| CCCCCCCCCNC(=O)c1c(CCCCC)cc2c(c1O)C=CC(C)(CCC=C(C)C)O2 (stereo not drawn) [Compound 4g, 5-hydroxy-2-methyl-2-(4-methylpent-3-en-1-yl)-N-nonyl-7-pentyl-2H-chromene-6-carboxamide] | 6.30 | 3.96 | – |
| CCCCCc1cc2c(c(O)c1C(=O)N[C@H]1CCCN(C(=O)OC(C)(C)C)C1)C=CC(C)(CCC=C(C)C)O2 (stereo partly drawn) [Compound 4s, tert-butyl(3S)-3-(5-hydroxy-2-methyl-2-(4-methylpent-3-en-1-yl)-7-pentyl-2H-chromene-6-carboxamido)piperidine-1-carboxylate] | 4.28 | 4.81 | – |
| CCCCCc1cc2c(c(O)c1C(=O)N1CCc3ccccc3C1)C=CC(C)(CCC=C(C)C)O2 (stereo not drawn) [Compound 4ac, (3,4-dihydroisoquinolin-2(1H)-yl)(5-hydroxy-2-methyl-2-(4-methylpent-3-en-1-yl)-7-pentyl-2H-chromen-6-yl)methanone] | 5.68 | 3.86 | – |
| CCCCCc1cc2c(c(O)c1C(=O)NC1CCCCCC1)C=CC(C)(CCC=C(C)C)O2 (stereo not drawn) [Compound 4ab, N-cycloheptyl-5-hydroxy-2-methyl-2(4-methylpent-3en-1-yl)-7-pentyl-2H-chromene-6-carboxamide] | 5.59 | – | – |
| CCCCCc1cc2c(c(O)c1C(=O)NC1CCCC1)C=CC(C)(CCC=C(C)C)O2 (stereo not drawn) [Compound 4e, N-cyclopentyl-5-hydroxy-2-methyl-2-(4-methylpent-3-en-1-yl)-7-pentyl-2H-chromene-6-carboxamide] | 6.40 | – | 6.40 |
| CCCCCc1cc2c(c(O)c1C(=O)N(C)C1CCCC1)C=CC(C)(CCC=C(C)C)O2 (stereo not drawn) [Compound 4ag, N-cyclopentyl-5-hydroxy-N,2-dimethyl-2-(4-methylpent-3-en-1-yl)-7-pentyl-2H-chromene-6-carboxamide] | 4.32 | 4.84 | – |
| CCCCCc1cc2c(c(O)c1C(=O)NC1CCN(S(C)(=O)=O)CC1)C=CC(C)(CCC=C(C)C)O2 (stereo not drawn) [Compound 4o, 5-hydroxy-2-methyl-2-(4-methylpent-3-en-1-yl)-N-(1-(methylsulfonyl)piperidin-4-yl)-7-pentyl-2H-chromene-6-carboxamide] | – | 5.07 | – |
| CCCCCc1cc2c(c(O)c1C(=O)NC/C=C(\C)CCC=C(C)C)C=CC(C)(CCC=C(C)C)O2 (stereo not drawn) [Compound 4k, (E)-N-(3,7-dimethylocta-2,6-dien-1-yl)-5-hydroxy-2-methyl-2-(4-methylpent-3-en-1-yl)-7-pentyl-2H-chromene-6-carboxamide] | 5.89 | 4.23 | – |
| CCCCCc1cc2c(c(O)c1C(=O)NCCc1ccc(O)cc1)C=CC(C)(CCC=C(C)C)O2 (stereo not drawn) [Compound 4x, 5-hydroxy-N-(4-hydroxyphenethyl)-2-methyl-2-(4-methylpent-3-en-1-yl)-7-pentyl-2H-chromene-6-carboxamide] | 6.10 | – | 5.59 |
| C=CCCCCCCCCCNC(=O)c1c(CCCCC)cc2c(c1O)C=CC(C)(CCC=C(C)C)O2 (stereo not drawn) [Compound 4i, 5-hydroxy-2-methyl-2-(4-methylpent-3-en-1-yl)-7-pentyl-N-(undec-10-en-1-1)-2H-chromene-6-carboxamide] | 6.52 | 4.18 | – |
| CCCCCc1cc2c(c(O)c1C(=O)N1CCS(=O)(=O)CC1)C=CC(C)(CCC=C(C)C)O2 (stereo not drawn) [Compound 4l, (1,1-dioxidothiomorpholino)(5-hydroxy-2-methyl-2-(4-methylpent-3-en-1-yl)-7-pentyl-2H-chromen-6-yl)methanone] | – | 3.79 | – |
